Measured values reported in article PMC5111108, “An insecticide resistance-breaking mosquitocide targeting inward rectifier potassium channels in vectors of Zika virus and malaria” (Scientific Reports, 2016).

Assays:
[1] = test system: An. gambiae Akron strain; test: Topical toxicity bioassay, An. gambiae Akron strain adult females; type: in vivo; conditions: 24 h, adult female An. gambiae, (95% confidence limits), synergist PBO applied 4 h prior where labelled
Method: (§1) Topical toxicity bioassays were performed based on the method of Pridgeon et al.[50]. Briefly, non-blood fed adult female mosquitoes were chilled on ice for 1–3 minutes, during which 200 nL of chemical (dissolved in 95% ethanol) was applied onto the abdomen of the insect using a handheld Hamilton® micro-applicator. For synergism studies, 500 ng of the synergist (i.e., piperonyl butoxide [PBO] or S,S,S-tributyl phosphorotrithioate [DEF]) per milligram of mosquito (ng/mg) was applied to the abdomen 4 h prior to application of the insecticide. […] The three ED50 values obtained were then averaged and presented as a mean. An ethanol-only treatment was included in each experiment as a negative control. Treated mosquitoes were transferred to small cages with access to 10% sucrose and held under rearing conditions for 24 h. Mortality was recorded at 24 h.

[2] = test system: Ae. aegypti; test: Topical toxicity bioassay, Ae. aegypti (LVP and PR strains) adult females; type: in vivo, Aedes aegypti; conditions: LVP strain
Method: Topical toxicity bioassays in adult female Ae. aegypti (LVP and PR strains) were performed as described previously. […] A solvent-only treatment was included in each experiment as a negative control. Treated mosquitoes were transferred to small cages with access to 10% sucrose and held under rearing conditions for 24 h. The efficacy of a dose was measured as the percentage of treated mosquitoes in a cage that were flightless or dead at 24 h. Four to eight replicates of 10 mosquitoes were performed per dose. The ED50 values were determined using a non-linear curve fit analysis (log [inhibitor] vs. response variable-slope) in Prism 6 (Graphpad Software).
Six replicate experiments of 10 mosquitoes were performed.

[3] = test system: An. gambiae G3 strain; test: Topical toxicity bioassay, An. gambiae G3 strain adult females; type: in vivo, Anopheles gambiae; conditions: adult female An. gambiae; for ED50, G3 Strain: 24 h, (95% confidence limits), synergists PBO/DEF applied 4 h prior where labelled
Method: as §1

[4] = test system: An. gambiae; test: Blood meal processing (abdominal diameter) in An. gambiae; type: in vivo, Anopheles gambiae; conditions: topical 1 μg/mg (ED30 dose of VU041) immediately after engorgement, over 24 h
Method: Blood meal processing studies were performed with similar methods as described above, with the exception that An. gambiae were blood fed on anesthetized mice. All methods were carried out in accordance with Vanderbilt Institutional Animal Care and Use Committee approval (protocol M/13/164 to Dr. Julian Hillyer, Department of Biology, Vanderbilt University). Upon completion of blood feeding, female mosquitoes with a fully distended abdomen were selected and 200 nL of chemical at a non-lethal concentration (1 μg/mg) was applied directly to the abdomen. Any mosquito that died during the 24 h observation period was excluded from the analysis. Images of the abdomens were acquired at 0, 2, 5, 8, and 24 h through the dorsal cuticle and were measured at the widest point of the abdomen. These images were captured using bright-field illumination on a Nikon 90i light microscope (Nikon Corp., Tokyo, Japan) connected to a Photometrics CoolSNAP HQ2 high-sensitivity monochrome CCD camera (Roper Scientific, Ottobrunn, Germany). Digital images were acquired using Nikon Advanced Research NIS-Elements software. Mean abdominal diameters were compared using a one-way ANOVA with a Tukey’s post-hoc analysis (Prism 6, Graphpad Software, La Jolla, CA).

[5] = target: T1, Kir6.2/SUR1 (Homo sapiens, UniProt Q14654); test: Tl+ flux assay, mammalian Kir6.2/SUR1; type: cell-based
T1 construct: expressed in transfected cells

[6] = test system: Ae. aegypti; test: Fecundity (eggs laid) in Ae. aegypti; type: in vivo, Aedes aegypti; conditions: 3.4 μg/mg mosquito, topical within 1 h after engorgement, 72 h post blood feeding
Method: The mosquitoes were returned to rearing conditions for 24 h after which they were transferred to individual egg laying tubes consisting of a glass tube 21 × 70 mm (Fisher Scientific, Pittsburg, PA) with a piece of coffee filter ([…] USA, Clearwater, FL) cut to fit the bottom of the tube. The filter was wetted with 150 μl of dH2O and the open end of the tube was plugged with a cotton ball. The mosquitoes in their individual egg laying tubes were returned to rearing conditions for an additional 48 h, and the number of eggs laid were counted. Any mosquitoes that died during the 72 h period after blood feeding were excluded from the analysis. Thirty female mosquitoes were used per replicate for each treatment group; each treatment was repeated on four separate broods, giving a total number of individuals studied ranging from 87-113 for each treatment group. For both species, the median number of eggs laid per mosquito was compared using a Kruskal-Wallis ANOVA with a Dunn's post-hoc analysis (Prism 6, Graphpad Software).

[7] = test system: honey bee, A. mellifera; test: Acute topical toxicity to adult honey bees; type: in vivo, Apis mellifera; conditions: 1 mg per bee topical, 48 h
Method: Frames of late-stage honey bee (A. mellifera) pupae were taken from four colonies at The Ohio State University Honey Bee Lab in Wooster, OH and maintained in a dark humid incubator at 34 °C (Darwin Chambers Co., St. Louis, MO, model H024) until adult bees emerged. New adults were brushed from frames daily and placed in wooden screen cages (21 × 14 × 12 cm) provisioned with 1:1 (w/w) sucrose in water.
Acute toxicity experiments in adult bees were performed as follows. Twenty-four hours after emergence, adult honey bees in cages were anaesthetized with carbon dioxide, divided into groups of approximately 20 bees and placed in plastic-coated paper cups (177 cm^3; UNIQ Paper Yogurt Cup, Frozen Dessert Supplies, Gilbert, AZ) covered with cotton cheesecloth. […] As a positive control, some bees were treated with 3 μl of bifenthrin (0.1 μg/μl); negative controls consisted of bees treated with 3 μl of solvent. Applications were made using a 20 μl micropipette (Fisherbrand Finnpipette F2, Fisher Scientific, Pittsburgh, PA) with disposable plastic tips. After treatment, bees were returned to the paper cups and provided with sugar syrup in punctured 1.5 ml microcentrifuge tubes. […] Bees showing no movement on inspection at 48 h after treatment were scored as dead.

T1 sequence (Q14654 whole entry): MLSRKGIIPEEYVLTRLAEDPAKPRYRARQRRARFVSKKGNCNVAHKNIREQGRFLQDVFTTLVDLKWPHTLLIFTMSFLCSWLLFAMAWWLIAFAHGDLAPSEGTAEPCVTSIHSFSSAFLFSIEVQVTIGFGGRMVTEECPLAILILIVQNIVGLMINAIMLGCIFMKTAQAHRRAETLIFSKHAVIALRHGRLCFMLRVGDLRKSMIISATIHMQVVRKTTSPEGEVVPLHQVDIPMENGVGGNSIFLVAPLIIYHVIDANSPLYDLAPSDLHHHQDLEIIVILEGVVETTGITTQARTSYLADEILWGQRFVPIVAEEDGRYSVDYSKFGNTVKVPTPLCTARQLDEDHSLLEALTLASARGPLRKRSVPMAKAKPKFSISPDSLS
T1 sequence (Q09428 whole entry partner): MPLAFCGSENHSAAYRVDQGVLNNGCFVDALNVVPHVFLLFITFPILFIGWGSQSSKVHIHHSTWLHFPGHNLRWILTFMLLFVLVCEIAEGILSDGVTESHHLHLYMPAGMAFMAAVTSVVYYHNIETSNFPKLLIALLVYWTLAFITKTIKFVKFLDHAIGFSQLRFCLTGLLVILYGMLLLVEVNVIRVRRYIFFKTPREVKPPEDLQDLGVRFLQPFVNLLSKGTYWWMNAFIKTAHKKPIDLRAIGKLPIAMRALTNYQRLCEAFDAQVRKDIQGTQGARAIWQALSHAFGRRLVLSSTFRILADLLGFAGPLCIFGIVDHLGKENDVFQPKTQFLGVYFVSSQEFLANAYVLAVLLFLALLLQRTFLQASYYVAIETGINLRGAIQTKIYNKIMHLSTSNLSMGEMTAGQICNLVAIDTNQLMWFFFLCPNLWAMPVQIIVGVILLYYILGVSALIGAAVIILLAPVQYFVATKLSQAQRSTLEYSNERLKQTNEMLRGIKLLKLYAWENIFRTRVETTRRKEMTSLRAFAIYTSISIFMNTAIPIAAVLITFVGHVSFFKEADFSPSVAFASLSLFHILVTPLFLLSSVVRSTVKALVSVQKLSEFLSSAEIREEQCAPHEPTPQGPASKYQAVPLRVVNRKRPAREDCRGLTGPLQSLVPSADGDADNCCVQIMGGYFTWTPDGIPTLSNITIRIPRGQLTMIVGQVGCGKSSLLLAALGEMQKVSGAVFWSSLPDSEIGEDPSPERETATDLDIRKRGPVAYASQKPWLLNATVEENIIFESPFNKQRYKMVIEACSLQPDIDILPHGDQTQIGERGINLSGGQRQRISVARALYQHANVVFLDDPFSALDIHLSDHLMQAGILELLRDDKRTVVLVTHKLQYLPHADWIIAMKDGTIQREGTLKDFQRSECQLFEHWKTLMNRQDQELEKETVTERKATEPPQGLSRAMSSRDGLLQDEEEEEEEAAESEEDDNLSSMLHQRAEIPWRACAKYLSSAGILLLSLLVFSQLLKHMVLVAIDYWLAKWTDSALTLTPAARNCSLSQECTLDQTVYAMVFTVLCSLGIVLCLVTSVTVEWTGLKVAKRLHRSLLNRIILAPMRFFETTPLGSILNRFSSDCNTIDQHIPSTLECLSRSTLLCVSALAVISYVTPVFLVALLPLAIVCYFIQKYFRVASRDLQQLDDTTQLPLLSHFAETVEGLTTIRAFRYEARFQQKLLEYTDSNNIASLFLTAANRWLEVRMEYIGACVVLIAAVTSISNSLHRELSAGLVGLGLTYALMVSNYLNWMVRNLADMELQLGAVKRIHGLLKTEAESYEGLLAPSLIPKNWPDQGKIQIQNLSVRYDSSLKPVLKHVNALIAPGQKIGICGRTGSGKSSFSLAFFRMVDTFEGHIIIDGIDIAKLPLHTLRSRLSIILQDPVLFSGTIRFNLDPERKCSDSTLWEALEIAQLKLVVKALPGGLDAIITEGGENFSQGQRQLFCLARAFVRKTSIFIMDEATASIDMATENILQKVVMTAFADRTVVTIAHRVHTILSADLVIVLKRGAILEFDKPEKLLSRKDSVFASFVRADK

SMILES	ED50, Akron Strain [1]	topical toxicity ([2]; dose near ED50 of VU041, 24 h)	ED50, G3 Strain [3]	change of abdominal diameter after blood meal [4]	inhibition at 30 µM [5]	median number of eggs laid per mosquito vs control [6]	honey bees alive [7]	ED50 ([2]; topical, 24 h, flightless or dead)	ED30 [3]
O=C(Cn1nc(C(F)(F)F)c2c1CCCC2)NC1CCC1 [VU937]	>10 µg/mg	not toxic	>10 µg/mg	decreased significantly over 24 h					
O=C(Cn1nc(C(F)(F)F)c2c1CCCC2)N1CCCc2ccccc21 [VU041, 1-(3,4-dihydroquinolin-1(2H)-yl)-2-(3-(trifluoromethyl)-4,5,6,7-tetrahydro-1H-indazol-1-yl)ethan-1-one]	2.8 (2.1–4.1) A μg/mg		1.8 (0.9–3.1) A μg/mg	did not change over the following 24 h period	< 10%	significantly lower median number of eggs per mosquito	91.3%	3.24 μg/mg mosquito	1 μg/mg of mosquito
O=C(Cn1ncc2c1CCOC2)N1CCCc2ccccc21 [VU730]			2.4 (2.1–2.9) A μg/mg						
